Experimental data published in US20030187056A1, “Live cell procedures to identify to identify compounds modulating intracellular distribution of phosphodiesterase( pde) enzymes” (priority 2000, published 2003).
“Also recorded” adds a separate entry of the source. Read-outs that look alike come from different tables or passages of the source.

Tests used:
PDE4A probes = test: Redistribution of the PDE4A probes (summary); format: cell-based; conditions: for redistribution of the PDE4A probes: compound alone
HSPDE4A1-EGFP [1] = biological target: T1, HSPDE4A1-EGFP (Homo sapiens, UniProt P27815); test: Competitive assay: reversal of Rolipram-induced spot dispersal, HSPDE4A1-EGFP CHO cells; format: cell-based; conditions: yes/no
T1 construct: the ca. 1.95 kb coding region of HSPDE4A1 (GenBank Acc.no. U97584) is amplified; expressed in transfected cells
T1 sequence (P27815 1-647 isoform P27815-4): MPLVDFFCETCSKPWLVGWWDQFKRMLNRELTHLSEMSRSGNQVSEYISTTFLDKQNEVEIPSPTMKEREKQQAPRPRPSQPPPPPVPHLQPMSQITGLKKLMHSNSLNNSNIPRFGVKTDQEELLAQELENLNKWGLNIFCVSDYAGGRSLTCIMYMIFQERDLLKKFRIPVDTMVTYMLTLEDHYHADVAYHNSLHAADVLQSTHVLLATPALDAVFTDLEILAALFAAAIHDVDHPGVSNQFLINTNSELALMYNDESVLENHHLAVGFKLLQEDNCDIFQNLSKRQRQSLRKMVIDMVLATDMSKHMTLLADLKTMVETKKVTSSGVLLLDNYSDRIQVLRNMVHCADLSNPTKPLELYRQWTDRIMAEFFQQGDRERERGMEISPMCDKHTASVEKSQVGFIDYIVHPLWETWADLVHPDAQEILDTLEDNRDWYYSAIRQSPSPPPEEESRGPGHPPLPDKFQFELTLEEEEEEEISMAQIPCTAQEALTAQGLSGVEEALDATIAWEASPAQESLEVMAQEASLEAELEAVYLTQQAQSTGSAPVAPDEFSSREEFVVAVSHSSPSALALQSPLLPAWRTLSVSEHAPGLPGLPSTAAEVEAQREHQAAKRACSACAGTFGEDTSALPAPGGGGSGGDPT

[2] = biological target: T2, high affinity Rolipram binding site (HARBS); conditions: read-out: Displacement of [3H] Rolipram (i: μM); Data from Souness and Rao, 1997; cited from earlier work
T2 construct: Displacement of [3H]; Rolipram (i: μM); other: Data from Souness and Rao, 1997

[3] = test system: high affinity Rolipram binding site (HARBS); conditions: Data from Souness and Rao, 1997; cited from earlier work
PDE4 [4] = conditions: cited from earlier work; for Inhibition of PDE4 catalytic activity: yes/no
[5] = human, in vivo; cited from earlier work
HSPDE4A4-EGFP [6] = biological target: T3, HSPDE4A4-EGFP (Homo sapiens, UniProt P27815); test: Spot formation in CHO cells transfected with HSPDE4A4-EGFP; format: cell-based; conditions: for cells with spots: 10 μM denbufylline, 24.5 hours; for Formation of PDE4A4 spots: yes/no; for formation of spots, compound alone (in words): observed up to 24 hours
T3 construct: expressed in transfected cells
T3 sequence (P27815 whole entry): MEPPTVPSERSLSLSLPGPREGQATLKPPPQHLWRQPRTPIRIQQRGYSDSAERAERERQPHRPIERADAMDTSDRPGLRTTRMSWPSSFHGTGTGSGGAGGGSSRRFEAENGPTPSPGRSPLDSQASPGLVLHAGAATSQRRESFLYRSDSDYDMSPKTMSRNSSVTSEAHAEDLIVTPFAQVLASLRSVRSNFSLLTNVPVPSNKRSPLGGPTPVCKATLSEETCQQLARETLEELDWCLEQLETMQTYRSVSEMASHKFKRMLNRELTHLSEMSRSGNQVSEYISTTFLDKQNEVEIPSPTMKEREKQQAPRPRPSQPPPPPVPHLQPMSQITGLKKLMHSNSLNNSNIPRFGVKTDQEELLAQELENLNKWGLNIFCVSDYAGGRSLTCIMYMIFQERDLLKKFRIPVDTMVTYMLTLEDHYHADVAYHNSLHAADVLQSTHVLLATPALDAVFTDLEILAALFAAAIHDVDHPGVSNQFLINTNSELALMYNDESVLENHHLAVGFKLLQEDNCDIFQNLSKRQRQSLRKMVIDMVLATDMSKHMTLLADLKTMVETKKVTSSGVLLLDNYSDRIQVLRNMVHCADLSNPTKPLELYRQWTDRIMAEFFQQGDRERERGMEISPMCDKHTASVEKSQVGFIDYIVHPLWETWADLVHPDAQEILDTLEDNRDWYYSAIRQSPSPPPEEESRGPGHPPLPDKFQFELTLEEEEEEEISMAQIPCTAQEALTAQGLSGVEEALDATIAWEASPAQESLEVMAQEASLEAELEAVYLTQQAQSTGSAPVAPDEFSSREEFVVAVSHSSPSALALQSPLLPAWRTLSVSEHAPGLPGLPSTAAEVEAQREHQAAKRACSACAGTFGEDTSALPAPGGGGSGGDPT
Protocol: Chinese hamster ovary cells (CHO), are transfected with the plasmids described in Example 1 above using the transfection agent FuGENE™ 6 (Boehringer Mannheim Corp, USA) according to the method recommended by the suppliers. Stable transfectants are selected using 1 mg/ml G418 sulphate (Calbiochem) in the growth medium (HAM's F12 nutrient mix with Glutamax-1, 10% foetal bovine serum (FBS), 100 μg penicillin-streptomycin mixture ml^−1 (GibcoBRL, supplied by Life Technologies, Denmark). Cell are cultured at 37° C. in 100% humidity and conditions of normal atmospheric gases supplemented with 5% CO2.
For fluorescence microscopy, cells are allowed to adhere to Lab-Tek chambered coverglasses (Nalge Nunc International, Naperville USA) for at least 24 hours and are then cultured to about 80% confluence. Cells can also be grown in plastic 96-well plates (Polyfiltronics Packard 96-View Plate or Costar Black Plate, clear bottom; both types tissue culture treated) for imaging purposes. Prior to experiments, the cells are cultured over night without G418 sulphate in HAM F-12 medium with glutamax, 100 μg penicillin-streptomycin mixture ml^−1 and 10% FBS. This medium has low autofluorescence enabling fluorescence microscopy of cells straight from the incubator. For certain tests requiring medium of defined composition, particularly with regard to the presence of specific cell growth factors, the HAM's culture medium is replaced prior to imaging with a buffered saline solution (KRW buffer) containing (in mM) 3.6 KCl, 140 NaCl, 2 NaHCO3, 0.5 NaH2PO4, 0.5 MgSO4, 1.5 CaCl2, 10 Hepes, 5 glucose, pH7.4.
Changes in cellular distribution of a transfected probe can be imaged and quantified in an automated fashion. For this purpose cells are cultured to near 80% to 90% confluence in coverglass chambers or plastic 96-well plates, given the relevant treatment and allowed to respond. At the end of the response period, cells are fixed in 4% formaldehyde buffer (Lillies fixative buffer, pH7.0: Bie and Berntsen A/S, Denmark) for 30 minutes to 2 hours, then washed in phosphate buffered saline (PBS, Life Technologies, Denmark). Nuclear DNA is stained with 1 μM Hoechst 33258 (Molecular Probes, Eugene, Oreg., USA) in PBS for 10 minutes at 25° C., then washed twice in PBS. Automated images are collected on a Nikon Diaphot 300 (Nikon, Japan) using a Nikon Plan Fluor 20X/0.5NA objective lens. The basic microscope is fitted with a motorised specimen stage and motorised focus control (Prior Scientific, Fulbourn, Cambridge UK), excitation filter wheel (Sutter Instruments, Novato Calif. USA) and Photometrics PXL series camera with a KAF1400 CCD chip (Photometrics, Tucson, Ariz. USA), each of these items being under the control of an Macintosh 7200/90 computer (Apple Computer, Cupertino, Calif. USA). Automation of stage positioning, focus, excitation filter selection, and image acquisition is performed using macros written in-house, running under IPLab Spectrum for Macintosh (Scanalytics, Fairfax, Va. USA). Fluorescence illumination comes from a 100 W HBO lamp. Images are collected in pairs, the first using a 340/10 nm excitation filter, the second with a 475RDF40 excitation filter (Chroma, Brattleboro, Vt.). Both images are collected via the same dichroic and emission filters, which are optimised for EGFP applications (XF100 filter set, Omega Optical, Brattleboro, Vt.). While the choice of filters for imaging the nuclear stain (Hoechst 33258) is not well matched to that dye's spectral properties, resulting in lower image intensity, it greatly improves the throughput of the procedure by allowing both images to be collected using the same dichroic and emission filter. This eliminates any image registration problems and focus shifts which would result from using two different filter sets, which would require more steps in the acquisition procedure and more extensive image processing to overcome.

HSPDE4A1-EGFP [7] = biological target: T1, HSPDE4A1-EGFP; test: Spot dispersal in CHO cells transfected with HSPDE4A1-EGFP; format: cell-based; conditions: for Removal of PDE4A1 spots: yes/no; for dispersal of PDE4A1 spots (in words): Rolipram 2 micromolar 2 hours, others over the ranges tested
Protocol: (§1) […] The cells are then fixed with 4% formalin buffer (pH7) for 1 hour, washed with PBS and stained with 1 μM Hoechst 33258 in PBS for 10 minutes at 25° C., then washed twice in PBS. Automated images are collected and analysed for the number of spots per cell as described in Example 2.
as §1

HSPDE4A4-EGFP [8] = biological target: T3, HSPDE4A4-EGFP; test: Dispersal of preformed Rolipram-induced spots, HSPDE4A4-EGFP CHO cells; format: cell-based; conditions: for Removal of Rolipram-induced PDE4A4-spots: yes/no
Protocol: For the microscopic assessment of spot dispersal, stably transfected (non-clonal) cells transfected with the HSPDE4A4-EGFP probe are allowed to adhere to chambered coverglasses in HAM's F12 medium containing 10% FBS. […] Chambered coverglasses are then transferred to a Zeiss 135 inverted microscope for time lapse imaging as described in Example 2, above. At a given point after starting an experiment, a mixture of IBMX and forskolin is added to give final concentrations of 1 mM and 50 μM, respectively. Images are captured at regular intervals to form a time lapse sequence of the response, also as described in Example 2.
The plate is then run in the FLIPR system at 37° C., with addition of IBMX and forskolin to all wells at final concentrations of 500 μM and 50 μM respectively after the first minute. The experiment is continued for a further 45 minutes, readings being taken at intervals of 1 minute.
Non-clonal CHO cells stably transfected with the HSPDE4A4-EGFP probe are allowed to adhere to chambered coverglasses in HAM's F12 medium containing 10% FBS and to grow for 24 hours.
Clonal CHO cells stably transfected with the HSPDE4A4-EGFP probe are allowed to adhere to chambered coverglasses in HAM's F12 medium containing 10% FBS and to grow for 5 days without change of medium, which by this time is serum-depleted.
Individual wells are then treated with either 50 μM forskolin plus 500 μM IBMX or 200 nM PMA plus 2 μM ionomycin.

[9] = test system: cAMP-dependent protein kinases (PKA); conditions: cited from earlier work
PDE4 [10] = test system: T4, PDE4; conditions: Saldou et al., 1998; read-out: IC50 against PDE4; cited from earlier work
T4 construct: other: Saldou et al., 1998; Such an enzyme preparation may be obtained from cells transfected with and expressing the PDE4 enzyme chosen

HSPDE4A4-EGFP [11] = biological target: T3, HSPDE4A4-EGFP; test: Competitive spot assay: inhibition of Rolipram- or RS25344-induced spot formation, HSPDE4A4-EGFP CHO cells; format: cell-based
Protocol: (§2) The cells are then fixed with 4% formaldehyde buffer (pH7) for 1 hour, washed with PBS and stained with 1 μM Hoechst 33258 in PBS for 10 minutes at 25° C., then washed twice in PBS. Automated images are collected and analysed for the number of spots per cell as described in Example 2.
as §2

PDE3 [12] = test: PDE3 inhibition (literature values, PDE3/PDE4 specificity); format: biochemical; conditions: measure of specificity
From the text: These compounds are termed specific to PDE4, since they inhibit other PDEs either weakly or not at all. The inverse ratio between IC50 of a compound to PDE4s versus its inhibition of other cAMP-degrading PDEs, such as PDE3s is often used as a measure of specificity.

PDE3 [13] = conditions: cited from earlier work
[14] = Data from Souness and Rao, 1997, read-out: PDE4 inhibition (IC50: μM)
[15] = literature values quoted in Example 5 (Saldou 1998; Ahluwalia 1982; Rubin 1991), read-out: IC50 against PDE4

| Compound | redistribution of the PDE4A probes (PDE4A probes) | Reversal of Rolipram-induced removal of PDE4A1 spots (HSPDE4A1-EGFP [1]) | Ki [2] [µM] | PDE4/HARBS, ratio (IC50 PDE4)/(Ki for HARBS) [3] | IC50 (PDE4 [4]; [14]) [µM] | IC50 (PDE4 [4]; [15]) [µM] | Inhibition of PDE4 catalytic activity (PDE4 [4]) | Clinical effect [5] | Emesis [5] | Formation of PDE4A4 spots (HSPDE4A4-EGFP [6]) | Removal of PDE4A1 spots (HSPDE4A1-EGFP [7]) | Removal of Rolipram-induced PDE4A4-spots (HSPDE4A4-EGFP [8]) | formation of spots, compound alone (in words) (HSPDE4A4-EGFP [6]) | dispersal of PDE4A1 spots (in words) (HSPDE4A1-EGFP [7]) | other results |
| --- | --- | --- | --- | --- | --- | --- | --- | --- | --- | --- | --- | --- | --- | --- | --- |
| CCCCn1c(=O)c2c(ncn2CC(C)=O)n(CCCC)c1=O [Denbufylline] | indistinguishable from those induced by Rolipram treatment | no | 0.0041 | 49 | 0.2 | 1 | yes | anti- | yes | yes | yes | no | – | – | cells with spots (HSPDE4A4-EGFP [6]): 40%; cells with spots (HSPDE4A4-EGFP [6]; listed as denbufylline): approximately 40% |
| O=S(=O)(NCCNC/C=C/c1ccc(Br)cc1)c1cccc2cnccc12 [H-89] | – | – | – | – | – | – | – | – | – | – | – | – | – | – | effect on the dispersal of spots induced by IBMX plus forskolin (HSPDE4A4-EGFP [8]; FLIPR, 2 micromolar H-89 pre-treatment 20 minutes): significant effect on the dispersal of spots; IC50 [9]: ~50 nM |
| CC(C)Cn1c(=O)n(C)c(=O)c2[nH]cnc21 [IBMX, 3-Isobutyl-1-Methylxanthine] | – | – | 0.84 | 17 | 14 | – | – | – | – | – | – | – | – | – | concentration after which an effect on PDE4A1 spot numbers starts (HSPDE4A1-EGFP [7]): > 100 µM |
| COc1ccc(C(=O)Nc2c(Cl)cncc2Cl)cc1OC1CCCC1 [RP73401] | induces no redistribution | yes | 0.0004 | – | 0.0012 | – | yes | anti- | no | no | no | yes | produces no spots | does not disperse spots; also recorded: no significant spot dispersal | prevention of the redistribution caused by Rolipram (PDE4A probes; in presence of Rolipram): prevent the redistribution; IC50 (PDE4 [10]): 0.3 nM; cells with spots (HSPDE4A4-EGFP [11]; 2 μM Rolipram plus 0.001 μM RP73401, 7.5 hours): less than 5%; spot formation (in words) (HSPDE4A4-EGFP [11]; 2 μM Rolipram plus 0.003 μM RP73401, 7.5 hours): unable to elicit the production of any spots; also recorded: no spots formed in any of the cells; time for dispersal of spots (HSPDE4A4-EGFP [8]; spots formed by 2 μM Rolipram over 16 hours, 1 μM RP73401): ≤ 10 min |
| COc1cc2c(cc1OC)-c1cc(=Nc3c(C)cc(C)cc3C)n(C)c(=O)n1CC2 [Trequinsin, 9,10-dimethoxy-2-mesitylimino-3-methyl-3,4,6,7-tetrahydro-2H-pyrimido[6,1-a]isoquinolin-4-one] | no redistribution | – | 1.7 | 023 | 0.4 | 1 | – | – | – | – | – | – | Neither compound causes formation of spots | no significant spot dispersal | (IC50 PDE3)/(IC50 PDE4) (PDE3 [12]): 0.00041 |
| CN(C(=O)CCCOc1ccc2[nH]c(=O)ccc2c1)C1CCCCC1 [cilostamide] | no redistribution | – | – | – | – | – | – | – | – | – | – | – | do not produce spots | – | IC50 (PDE3 [13]): 70 nM; effect on spot formation by 2 μM Rolipram (in words) (HSPDE4A4-EGFP [11]; 500 μM theophylline, 100 μM caffeine, 10 μM milrinone, 0.5 μM cilostamide, 100 μM zaprinast): form the same number and type of bright spots |
